Values of other authors, collected in patent US20070219271A1, “Pharmaceutical Compositions Containing Pufa And At Least One Of An Immunosuppressive Agent Or An Antineoplastic Agent” (Tillotts Pharma AG, priority 2004, published 2007).

System: human squamous carcinoma line and multidrug-resistant and carboplatin-resistant variants
Settings: cells pre-treated with GLA

CCCCC/C=C\C/C=C\C/C=C\CCCCC(=O)O [GLA, gamma-linoleic acid]
enhancement of vincristine toxicity: up to 40%
enhancement of toxicity of carboplatin (depending on the concentration of GLA, human squamous carcinoma and carboplatin-resistant variant cell lines): > 50%
